Assay results reported in patent US10506808B2, “Composition and rodenticide bait comprising difethialone and method for controlling target rodent pests” (priority 2015, dated 2019).
Where two headings read alike, the source gives them in different places.

Columns and labels:
[1] = type: in vivo, Rattus norvegicus; conditions: about 3.4 mg/kg difethialone per os (40% homo-, 60% hetero-stereoisomer, each racemic), mean of six rats
Description: About 0.525 g (±0.025 g) of rat liver is weighed out accurately and placed in a 50 mL polypropylene tube. 10 mL of acetone are added and the suspension is homogenized using an Ultra-Turrax® homogenizer/disperser for a time of about 30 seconds. The homogenizer/disperser shaft is rinsed with hot water and then twice with 20 mL of acetone in a polypropylene tube. The homogenate is centrifuged for 5 minutes at a centrifugation speed of 3000 rpm (revolutions per minute). The supernatant is collected and transferred into a test tube. The sample is subjected to evaporation under a stream of nitrogen (N2) at a temperature of 40° C. so as to form a dry extract.
1 mL of acetonitrile is added to the tube containing the dry extract so as to dissolve it. The acetonitrile solution is washed twice successively with 1 mL of hexane. The lipid-free extract is dried under a stream of nitrogen (N2) at a temperature of 40° C. and is then taken up in 0.5 mL of methanol and dissolved by vortex stirring. 0.5 mL of ultra-pure (Milli-Q) water is then added. The sample is vortex-homogenized.
1 mL of dichloromethane, then 1 mL of methanol, then 1 mL of ultra-pure (Milli-Q) water are passed through an Oasis HLB 1 cc cartridge (WAT094225, Waters). The lipid-free liver extract (1 mL of MeOH/Milli-Q H2O) containing difethialone is then loaded onto the top of the cartridge so that the liver extract penetrates through the cartridge by gravity on contact with the solid phase. 1 mL of washing solution formed from methanol and ultra-pure water in a 90/10 volume proportion is then loaded onto the top of the cartridge. The cartridge is dried by suction under vacuum connected to the bottom of the cartridge. 1 mL of eluting solution formed from dichloromethane and methanol in a 90/10 volume proportion is then loaded onto the top of the cartridge and an eluate comprising difethialone is collected at the bottom of the cartridge. The solvent of the eluate is evaporated off under a stream of nitrogen (N2) at a temperature of 40° C. The sample is taken up in 0.5 mL of acetonitrile and the acetonitrile solution containing difethialone is filtered through a 0.2 μm filter.
The composition is analysed by high-pressure liquid chromatography on a chiral column as described in point A2) above.
A solution of a mixture of homo-stereoisomer (DFN-Homo-SI) and of hetero-stereoisomer (DFN-Hetero-SI) of difethialone in a mixture of vegetable oil and 5% DMSO is administered by tube-feeding (“per os”) to 8-week-old coumaphen-sensitive rats (male and female Rattus norvegicus) weighing about 200 g. The molar proportion of homo-stereoisomer is 40% and the molar proportion of hetero-stereoisomer is 60%. Each configurational stereoisomer of difethialone is formed from a racemic mixture of the two enantiomers of said corresponding configurational stereoisomer.
On D0, a tube-feeding solution is administered to each rat so that the amount of difethialone ingested by each rat is about 3.4 mg per kilogram of rat. To avoid haemorrhage, the rats are also treated daily by subcutaneous administration of a dose of vitamin K1 (as haemorrhage antidote) at a rate of […] per 200 g of live rat weight.
At 4 hours (H+4), 9 hours (H+9), 24 hours (H+24), 120 hours (H+120), 168 hours (H+168) and 216 hours (H+216) after tube-feeding, three male rats and three female rats anaesthetized beforehand with isoflurane are euthanized, the liver of the euthanized rats is removed, the difethialone is then extracted from the liver, the amount of each of the configurational stereoisomers of difethialone is assayed, the area under the peaks in the chromatogram obtained is measured and each configurational stereoisomer is quantified by comparison with a calibration curve. […]

[2] = type: in vivo, Rattus norvegicus; conditions: 48 hours after tube-feeding; about 3.4 mg/kg difethialone per os (40% homo-, 60% hetero-stereoisomer, each racemic); mean of six rats
[3] = 4 hours after tube-feeding, daily vitamin K1

Row | SMILES | Hepatic content [1, 3] [ng/g] | Hepatic content ([1]; 9 hours after tube-feeding) [ng/g] | Hepatic content ([1]; 24 hours after tube-feeding) [ng/g] | Hepatic content ([1]; 120 hours after tube-feeding) [ng/g] | Hepatic content ([1]; 168 hours after tube-feeding) [ng/g] | Hepatic content ([1]; 216 hours after tube-feeding) [ng/g] | Hepatic content [2] [ng/g]
1 | Oc1c(C2CC(c3ccc(-c4ccc(Br)cc4)cc3)Cc3ccccc32)c(=S)oc2ccccc12 (single isomer, unassigned) [DFN-Homo-dextro, 3-(4′-bromobiphenyl-4-yl)-1-(4-hydroxythiocoumarin-3-yl)-1,2,3,4-tetrahydronaphthalene] | 4566 | 4692.5 | 1243.5 | 192.5 | 129 | 77.5 | 720.5
2 | Oc1c(C2CC(c3ccc(-c4ccc(Br)cc4)cc3)Cc3ccccc32)c(=S)oc2ccccc12 (single isomer, unassigned) [DFN-Hetero-dextro, 3-(4′-bromobiphenyl-4-yl)-1-(4-hydroxythiocoumarin-3-yl)-1,2,3,4-tetrahydronaphthalene] | 10589.5 | 12155.5 | 8102 | 5431.5 | 3011 | 4030.5 | 7974.5
